The values below are quoted from earlier work in patent publication US20100076052A1, “PERINDOPRIL FORMULATIONS” (priority 2008, published 2010).

Regarding `CCCC(N[C@@H](C)C(=O)N1[C@H](C(=O)O)C[C@@H]2CCCC[C@@H]21)C(=O)OCC` (stereo partly drawn) [Perindopril erbumine, (2S,3αS,7αS)-1-[(S)—N—[(S)-1-carboxybutyl]alanyl]hexahydro-2-indolinecarboxylic acid, 1-ethyl ester, compound with t-butylamine (1:1)], where the note is “alcohol”, the solubility in alcohol entry is on record as “freely soluble”. Further, the solubility in chloroform entry (chloroform) is recorded as “freely soluble”. Where the note is “water”, the solubility in water is given as 60 % w/w.
